ChEMBL document CHEMBL1127723, “Tetrahydroisoquinoline derivatives with AT2-specific angiotensin II reception binding inhibitory activity” (Bioorg Med Chem Lett, 1994)

System: Type-2 angiotensin II receptor (Oryctolagus cuniculus)
Test: Inhibitory activity against angiotensin II type 2 (AT2) receptor in rabbit uterine membranes at 10e-6 M; not active; call rule not given here

COc1ccc2c(c1O)CC(C(=O)O)N(C(=O)N(C)c1ccccc1)C2 (stereo unspecified)
IC50: Not Active
